Experiment: Estrogen receptor binding affinity using [3H]estradiol in a competitive radioreceptor binding assay.

relative binding affinity (RBA)	SMILES
1.3	CCC(c1ccc(O)cc1)C(CC)c1ccc(O)c(CCCNS(=O)(=O)c2cccc3c(N(C)C)cccc23)c1 (stereo unspecified)
5.4	CCC(c1ccc(O)cc1)C(CC)c1ccc(O)c(CCCN2C(=O)c3ccccc3C2=O)c1 (stereo unspecified)
39	CCCCCOC(=O)C(c1ccc(O)cc1)C(CC)c1ccc(O)cc1 (stereo unspecified)
3	CCC(c1ccc(O)cc1)C(CC)c1ccc(O)c(CCCN2C(=O)c3cccc([N+](=O)[O-])c3C2=O)c1 (stereo unspecified)
3.9	CCC(c1ccc(O)cc1)C(CSCCCCNc1ccc([N+](=O)[O-])c2nonc12)c1ccc(O)cc1 (stereo unspecified)
12	CCC(c1ccc(O)cc1)C(CC)c1ccc(O)c(CCCO)c1 (stereo unspecified)
8.9	CCC(c1ccc(O)cc1)C(CO)c1ccc(O)cc1 (stereo unspecified)
6.7	CCC(c1ccc(O)cc1)C(COCCOCCCl)c1ccc(O)cc1 (stereo unspecified)
4.3	CCC(c1ccc(O)cc1)C(CSCCCNc1ccc([N+](=O)[O-])c2nonc12)c1ccc(O)cc1 (stereo unspecified)
60	CCC(c1ccc(O)cc1)C(CCI)c1ccc(O)cc1 (stereo unspecified)
133	CCC(c1ccc(O)cc1)C(C)c1ccc(O)cc1 (stereo unspecified)
61.6	CCCCSCC(c1ccc(O)cc1)C(CC)c1ccc(O)cc1 (stereo unspecified)
0.85	CCC(c1ccc(O)cc1)C(CSCCNc1ccc([N+](=O)[O-])c2nonc12)c1ccc(O)cc1 (stereo unspecified)
2.6	CCC(c1ccc(O)cc1)C(CSCCCCCCCNS(=O)(=O)c1cccc2c(N(C)C)cccc12)c1ccc(O)cc1 (stereo unspecified)
1.5	CCC(c1ccc(O)cc1)C(CC)c1ccc(O)c(CCCNc2ccc([N+](=O)[O-])c3nonc23)c1 (stereo unspecified)
1.6	CCC(c1ccc(O)cc1)C(CSCCCCCCCN1C(=O)c2ccccc2C1=O)c1ccc(O)cc1 (stereo unspecified)
3.6	CCCCSCCCc1cc(C(CC)C(CC)c2ccc(O)cc2)ccc1O (stereo unspecified)
20	CCC(c1ccc(O)cc1)C(CC(=O)OC)c1ccc(O)cc1 (stereo unspecified)

relative binding affinity (RBA)	SMILES
2.9	CCC(c1ccc(O)cc1)C(CSCCCCCCNc1ccc([N+](=O)[O-])c2nonc12)c1ccc(O)cc1 (stereo unspecified)
172	CCC(c1ccc(O)cc1)C(CI)c1ccc(O)cc1 (stereo unspecified)
5	CCC(c1ccc(O)cc1)C(CC)c1ccc(O)c(CCCOCc2ccccc2)c1 (stereo unspecified)
16.2	CCC(c1ccc(O)cc1)C(CCO)c1ccc(O)cc1 (stereo unspecified)
4.2	CCCCCOC(=O)CC(c1ccc(O)cc1)C(CC)c1ccc(O)cc1 (stereo unspecified)
3.4	CCC(c1ccc(O)cc1)C(CSCCCCCCCNc1ccc([N+](=O)[O-])c2nonc12)c1ccc(O)cc1 (stereo unspecified)
23.4	CCCCSCCC(c1ccc(O)cc1)C(CC)c1ccc(O)cc1 (stereo unspecified)
69	CCC(c1ccc(O)cc1)C(CC)c1ccc(O)c(N=[N+]=[N-])c1 (stereo unspecified)
3.6	CCC(c1ccc(O)cc1)C(CSCCCCN1C(=O)c2ccccc2C1=O)c1ccc(O)cc1 (stereo unspecified)
13.2	CCC(c1ccc(O)cc1)C(CC)c1ccc(O)c(CCCOC)c1 (stereo unspecified)
16.6	CCC(c1ccc(O)cc1)C(CCOCCOCCCl)c1ccc(O)cc1 (stereo unspecified)
69	CCC(c1ccc(O)cc1)C(C(=O)OC)c1ccc(O)cc1 (stereo unspecified)
54	C=CCc1cc(C(CC)C(CC)c2ccc(O)cc2)ccc1O (stereo unspecified)
3.5	CCC(c1ccc(O)cc1)C(CSCCCCCNc1ccc([N+](=O)[O-])c2nonc12)c1ccc(O)cc1 (stereo unspecified)
37	CCC(c1ccc(O)cc1)C(CC)c1ccc(O)c(I)c1 (stereo unspecified)
7.4	CCC(c1ccc(O)cc1)C(CC)c1ccc(O)c(CCCN2C(=O)c3cccc(N)c3C2=O)c1 (stereo unspecified)
1	CCC(c1ccc(O)cc1)C(CC)c1ccc(O)c(CCCNc2ccc([N+](=O)[O-])cc2[N+](=O)[O-])c1 (stereo unspecified)
1.7	CCC(c1ccc(O)cc1)C(CC)c1ccc(O)c(CCCOc2ccc([N+](=O)[O-])cc2[N+](=O)[O-])c1 (stereo unspecified)
